# Results as given in paper PMC9703152 (Journal of hepatology, 2020).
# Where a name gives a salt, the structure may show the parent alone. Read-outs that look alike come from different tables or passages of the source.
# Columns and labels:
# [1] = tested on: mtDNA production in human PBMCs
# HBVWT^C2 [2] = test: Anti-HBV qPCR assay in HBV-exposed PXB-cells; assay type: cell-based, Hepatitis B virus; conditions: for IC50: Hepatitis B virus, read-out: IC50^qPCR_cell; for IC95^qPCR_sup / IC95^qPCR_cell: PXB-cells; for IC95^qPCR_sup: HBVWT^C2, HBV-DNA in culture medium blocked by 95%; for IC95^qPCR_cell: HBVWT^C2, intracellular HBV-DNA blocked by 95%
# [3] = Cytotoxicity, MTT assay, MT-2 cells; assay type: cell-based; conditions: human
# [4] = Cytotoxicity, MTT assay, HepG2 cells; assay type: cell-based; conditions: human
# [5] = Cytotoxicity, MTT assay, Huh7 cells; assay type: cell-based; conditions: human
# [6] = Cytotoxicity, MTT assay, PXB-cells; assay type: cell-based; conditions: human
# HBVWT^D1 [7] = test: microbe, parasite or virus in culture; assay type: cell-based, Hepatitis B virus
# [8] = Intracellular concentration of compound in HepG2.2.15 cells; assay type: in vitro ADME, human; conditions: 100 µM, 6 hours incubation
# [9] = Acid resistance: anti-HBV activity after pH 2 exposure; assay type: physicochemical; conditions: pH 2, 5 and 60 minutes at 37 °C, then tested in HepG2.2.15 cells
# HBVWT^C2 [10] = test: Antiviral effect in chronically HBVWT^C2-infected PXB-mice; assay type: in vivo; conditions: for reduction of serum HBVWT^C2-DNA copies: day 21
# HIV-1LAI = test: Anti-HIV assay; assay type: cell-based; conditions: Human immunodeficiency virus 1, read-out: IC50^MTT
# HBV [11] = test: Combination of E-CFCP with GLS4, HBV-DNA production by HepG2.2.15 cells; assay type: cell-based, Hepatitis B virus
# [12] = Body weights and serum human albumin in treated PXB-mice; assay type: in vivo
# [13] = tested on: MOT-4 cells and human primary peripheral blood mononuclear cells; test: Cell proliferation assays in MOT-4 cells and human PBMCs; assay type: cell-based
# HBVWT^D1 [14] = conditions: high concentrations (100 and 1,000 nM), HepG2.2.15 cells
# [15] = tested on: mtDNA production in PXB-cells
# HBVWT^D1 [16] = test: microbe, parasite or virus in culture; conditions: Hepatitis B virus, HepG2.2.15, read-out: IC50^qPCR_cell
# [17] = Cytotoxicity, LDH release assay, primary hepatocytes; conditions: human
# [18] = Cytotoxicity, Neutral Red staining assay, primary hepatocytes; conditions: human
# HBV [19] = conditions: 90 mg/kg/day, 3-week administration, HBV-infected PXB-mice; cited from earlier work
# [20] = Intracellular concentrations of phosphorylated forms in HepG2.2.15 cells; assay type: in vitro ADME, human
# [21] = 10 µM, 6 days of culture without compound
compound,measurement,setting,value
C=C1C(n2cnc3c(=O)[nH]c(N)nc32)CC(O)C1(C#N)CO (stereo not drawn) [CMCdG],inhibition of mtDNA production (in words),[1]; human PBMCs and PXB-cells,non-toxic
N#C[C@]1(CO)/C(=C\F)[C@@H](n2cnc3c(=O)[nH]c(N)nc32)C[C@@H]1O [E-CFCP],IC50,HBVWT^C2 [2],0.01 nM
same,IC95^qPCR_sup,HBVWT^C2 [2],0.0035 µM
same,IC95^qPCR_cell,HBVWT^C2 [2],0.339 µM
same,CC50,[3]; MT-2 cells,306 µM
same,CC50,[4]; HepG2 cells,115 µM
same,CC50,[5]; Huh7 cells,> 500 µM
same,CC50,[6]; PXB-cells,> 500 µM
same,HBV-DNA synthesis blockade,HBVWT^D1 [7]; [21],100%
same,HBV-DNA synthesis blockade,"HBVWT^D1 [7]; 10 µM, 16 days of culture without compound",> 80%
same,% inhibition of HBVWT^D1-DNA production,"HBVWT^D1 [7]; 10 µM, exposed 11 days, 14 days of culture without compound",> 90%
same,persistence of anti-HBV activity (>80% Inhibition) after compound removal,HBVWT^D1 [7]; HepG2.2.15 cells,~16 days
same,intracellular concentration,[8],approximately 200 pmol/2×10^6 cells
same,anti-HBV activity after pH 2 exposure,[9],comparable to pH 2-unexposed E-CFCP
same,reduction of serum HBVWT^C2-DNA copies,HBVWT^C2 [10]; 0.02 mg/kg/day for two weeks,2.2±0.06 log
same,persistence of reduction after administration cessation,HBVWT^C2 [10]; 0.2 mg/kg/day,≥ 3 weeks
same,reduction of serum HBVWT^C2-DNA copies,HBVWT^C2 [10]; 0.2 mg/kg/day for two weeks,2.6±0.1 log
same,persistence of reduction following treatment cessation,"HBVWT^C2 [10]; PXB-mice, 0.02∼0.2 mg/kg/day",1–3 weeks
same,reduction of HBVWT^C2-viremia,"HBVWT^C2 [10]; once-daily peroral, 2 weeks, 0.02∼0.2 mg/kg/day",2–3 logs
same,IC50,HIV-1LAI,0.205 ± 0.0238 µM
same,combination effect with GLS4 (Chou-Talalay Method),HBV [11]; 1 and 10 nM E-CFCP with GLS4 at the same concentration,synergism was observed
same,combination effect with GLS4 (Chou-Talalay Method),"HBV [11]; 100 and 1,000 nM E-CFCP with GLS4 at the same concentration",no synergism was detected
same,changes in body weights or serum human albumin levels,"[12]; 0.2 mg/kg/day for 2 weeks, HBVWT^C2-infected PXB-mice",No significant changes
same,changes of body weights and human serum albumin over 8 weeks,"[12]; once daily 0.2 mg/kg/day, E-CFCP-receiving vs ETV-receiving mice",no significant changes
same,cell proliferation safety profile (in words),[13],highly favorable safety profiles
same,inhibition of HBV-DNA production,HBVWT^D1 [14],100%
same,Mitotox50,"[1]; human PBMCs, mtDNA production",38.2 µM
same,Mitotox50,"[15]; PXB-cells, mtDNA production",29.6 µM
same,IC50,HBVWT^D1 [16],0.0018 µM
same,CC50,[17]; primary hepatocytes,> 100 µM
same,CC50,[18]; primary hepatocytes,> 100 µM
"C=C1[C@H](CO)[C@@H](O)C[C@@H]1n1cnc2c(=O)[nH]c(N)nc21 [ETV, entecavir]",IC50,HBVWT^C2 [2],0.13 nM
same,IC95^qPCR_sup,HBVWT^C2 [2],0.079 µM
same,IC95^qPCR_cell,HBVWT^C2 [2],0.859 µM
same,HBV-DNA synthesis blockade,HBVWT^D1 [7]; [21],< 80%
same,reduction of serum HBVWT^C2-DNA copy numbers,"HBVWT^C2 [10]; 0.02 mg/kg/day, two weeks, at conclusion of administration (day 14)",2.0±0.07 log
same,inhibition of HBV-DNA production,HBVWT^D1 [14],< 100%
same,Mitotox50,[1]; human,40.4 µM
same,Mitotox50,[15]; human,35.2 µM
"CC(C)OC(=O)[C@H](C)N[P@](=O)(CO[C@H](C)Cn1cnc2c(N)ncnc21)Oc1ccccc1 [TAF, tenofovir alafenamide, reference compound]",IC50,HBVWT^C2 [2],0.59 nM
same,IC95^qPCR_sup,HBVWT^C2 [2],0.09 µM
same,IC95^qPCR_cell,HBVWT^C2 [2],0.513 µM
same,CC50,[3],21 µM
same,CC50,[4],22 µM
same,CC50,[5],34 µM
same,CC50,[6],8.2 µM
same,inhibition at 1 µM,"HBVWT^D1 [7]; Hepatitis B virus, HepG2.2.15, read-out: HBV-DNA production inhibition",90%
same,inhibition of HBV-DNA production,HBVWT^D1 [14],< 100%
same,CC50,[17],97 µM
same,CC50,[18],26 µM
"CC(C)OC(=O)OCOP(=O)(CO[C@H](C)Cn1cnc2c(N)ncnc21)OCOC(=O)OC(C)C [TDF, tenofovir disoproxil fumarate]",viral load reduction,HBV [19],approximately 1.5 logs
C[C@@H](Cn1cnc2c(N)ncnc21)OCP(=O)(O)OP(=O)(O)OP(=O)(O)O [TFV-DP],intracellular phosphorylated form (in words),[20],not detected by day 3 and beyond
N#C[C@]1(CO)/C(=C/F)[C@@H](n2cnc3c(=O)[nH]c(N)nc32)C[C@@H]1O [Z-CFCP],IC50,HBVWT^D1 [16],0.414 µM
"Nc1ccn([C@H]2CC[C@@H](CO)O2)c(=O)n1 [zalcitabine/ddC, zalcitabine]",inhibition of mtDNA production (in words),[1],strongly blocked mtDNA production
